Patent US10703748B2, “Diazanaphthalen-3-yl carboxamides and preparation and use thereof” (Samumed, LLC, priority 2017, dated 2020)

What was measured:
GSK3β kinase = GSK3β kinase (Homo sapiens, UniProt P49841); assay: GSK3β kinase activity (Ser/Thr 09 peptide Z-lyte FRET assay); type: biochemical; conditions: recombinant kinase, 46 μM ATP, one hour at room temperature; read-out: EC50
[1] = system: Wnt-responsive Sp5-Luc reporter in SW480 colon carcinoma cells; assay: Screening assay for Wnt activity (Sp5-Luc reporter gene assay); conditions: Homo sapiens; for EC50: SW480; for inhibition at 10 µM: SW480, read-out: percent inhibition at 10 μM
[2] = system: SW480 colon carcinoma cells; assay: Cell viability assay (CellTiter-Glo); conditions: Homo sapiens; for EC50: SW480, 96 h; for inhibition at 10 µM: SW480, read-out: percent inhibition at 10 μM
DYRK1A kinase = DYRK1A kinase (Homo sapiens, UniProt Q13627); assay: DYRK1A kinase activity (Ser/Thr 18 peptide Z-lyte FRET assay); type: biochemical; conditions: recombinant DYRK1A, 30 μM ATP, one hour at room temperature;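 also: kinase activity read as coumarin/fluorescein emission ratio after development step, with unphosphorylated and phosphorylated peptide forms setting 0% and 100% controls, values from dose-response curves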
Protocol: Representative compounds were screened using the assay procedure for DYRK1A kinase activity as described below.
Each compound was dissolved in DMSO as a 10 mM stock and used to prepare compound source plates.
This is a non-radioactive assay using fluorescence resonance energy transfer (FRET) between coumarin and fluorescein to detect kinase activity which is represented as a ratio of coumarin emission/fluorescein emission.
The mixture was allowed to incubate with the representative compounds for one hour at room temperature. All reactions were performed in duplicate. Unphosphorylated (“0% Control”) and phosphorylated (“100% control”) forms of Ser/Thr 18 served as control reactions. Additionally, an 11-point dose-response curve of Staurosporine (1 uM top) was run to serve as a positive compound control.
After incubation, Development Reagent A was diluted in Development Buffer then added to the reaction and allowed to further incubate for one hour at room temperature.
Dose-response curves were generated and inhibitory concentration (IC50) values were calculated using non-linear regression curve fit in the Dotmatics' Studies Software (Bishops Stortford, UK).

[3] = system: secreted cytokines TNFα, IL-6 and KC-GRO; assay: Secreted cytokines in Lipopolysaccharide-stimulated BV-2 cells (Table 9 does not say which cytokine); type: cell-based, mouse; conditions: Mus musculus, BV-2, 5 h; read-out: EC50
Protocol: BV-2 cells (mouse microglial cells) were cultured in 1:1 DMEM medium supplemented with 10% FBS, and 1% penicillin/streptomycin.
BV-2 cells are plated at 35,000 cells/well in a volume of 100 μl for at least 4 hours before compounds are added. […] Compounds were added to cells overnight. […] Supernatant is removed and saved for further cytokine detection. The original plates with seeded cells were tested for cytotoxicity by measure of adenosine triphosphate (ATP) release by adding CellTiter-Glo® diluted 1:4 in distilled water (G7573, Promega) and transferring lysed cells to a completely black 96-well plate to be read with the Cytation3. Supernatant was then diluted 1:2 with a diluent from V-PLEX cytokine Kit and directly tested for the secreted cytokines TNFα, IL-6 and KC-GRO using electrochemiluminescence (Meso Scale Discovery). The standard curve for each cytokine was used to convert the electrochemiluminescent signal into pg of protein per mL.

IL-6 = IL-6 inhibition in LPS-stimulated human peripheral blood mononuclear cells (HTRF); conditions: Homo sapiens, PBMC; for EC50: 22 h; for inhibition at 10 µM: read-out: percentage in parentheses after EC50 >10
[4] = system: α-smooth muscle actin (aSMA) positive LL29 cells; assay: Inhibition of the fibrotic process: αSMA staining in TGF-β1 treated LL29 fibroblasts from IPF patients; conditions: Homo sapiens, Fibroblast; for EC50: 96 h; for inhibition at 10 µM: read-out: percentage in parentheses after EC50 >10

Chain of GSK3β kinase (P49841 whole entry): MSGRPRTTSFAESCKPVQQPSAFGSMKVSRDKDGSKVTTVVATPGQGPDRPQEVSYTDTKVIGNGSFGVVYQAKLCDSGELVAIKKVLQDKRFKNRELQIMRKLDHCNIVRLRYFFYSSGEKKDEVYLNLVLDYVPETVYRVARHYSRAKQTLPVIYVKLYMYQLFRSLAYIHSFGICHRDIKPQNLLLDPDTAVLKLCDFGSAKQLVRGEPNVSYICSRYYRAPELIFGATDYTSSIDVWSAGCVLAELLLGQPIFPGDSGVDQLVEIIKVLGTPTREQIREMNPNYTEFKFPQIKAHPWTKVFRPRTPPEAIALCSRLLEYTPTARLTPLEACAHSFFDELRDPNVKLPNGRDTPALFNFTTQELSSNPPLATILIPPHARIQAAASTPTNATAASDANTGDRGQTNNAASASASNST

Row | Compound | EC50 (GSK3β kinase) | EC50 [1] | inhibition at 10 µM [1] | EC50 [2] | inhibition at 10 µM [2] | EC50 (DYRK1A kinase) | EC50 [3] | EC50 (IL-6) | inhibition at 10 µM (IL-6) | EC50 [4] | inhibition at 10 µM [4]
1 | O=C(Nc1cc2cc(-c3cncc(NC4CCNCC4)n3)cnc2cn1)C1CCOCC1 [Compound 3597, N-(3-(6-(Piperidin-4-ylamino)pyrazin-2-yl)-1,7-naphthyridin-6-yl) tetrahydro-2H-pyran-4-carboxamide] | > 10000 nM | > 10000 nM | 7.6% | > 10000 nM | 8.1% | 6 nM | ≥ 10000 nM | > 10000 nM | 0% | > 10000 nM | 7.7%
2 | O=C(Nc1cc2cc(-c3cncc(N[C@H]4CCNC[C@@H]4F)n3)cnc2cn1)C1CC1 [Compound 3599, N-(3-(6-(((3S,4S)-3-Fluoropiperidin-4-yl)amino)pyrazin-2-yl)-1,7-naphthyridin-6-yl)cyclopropanecarboxamide] | 780 nM | > 10000 nM | 41.3% | 8850 nM |  | 8 nM | 832 nM | > 10000 nM | 40.1% | 3010 nM | 
3 | CN1CCC(n2cc(C(=O)Nc3cc4cc(-c5cncc6[nH]ccc56)cnc4cn3)cn2)CC1 [Compound 3616, N-(3-(1H-Pyrrolo[2,3-c]pyridin-4-yl)-1,7-naphthyridin-6-yl)-1-(1-methylpiperidin-4-yl)-1H-pyrazole-4-carboxamide] | > 10000 nM | 485 nM |  | 504 nM |  | 29 nM | 1200 nM | 2370 nM |  | 3160 nM | 
4 | CC(C)n1cc(C(=O)Nc2cc3cc(-c4cncc(NC5CCN(C)CC5)n4)cnc3cn2)cn1 [Compound 3627, 1-Isopropyl-N-(3-(6-((1-methylpiperidin-4-yl)amino)pyrazin-2-yl)-1,7-naphthyridin-6-yl)-1H-pyrazole-4-carboxamide] | > 10000 nM | 1680 nM |  | 3420 nM |  | 7 nM | 708 nM | > 10000 nM | 10.6% | > 10000 nM | 33.4%
5 | CN1CCN(c2cc(C(=O)Nc3cc4cc(-c5cnn(C)c5)ncc4cn3)ccn2)CC1 [Compound 3774, N-(6-(1-Methyl-1H-pyrazol-4-yl)-2,7-naphthyridin-3-yl)-2-(4-methylpiperazin-1-yl)isonicotinamide] | 397 nM | > 10000 nM | 54.7% | 9640 nM |  | 10 nM | 972 nM | > 10000 nM | 10.8% | 5860 nM | 
6 | CN1CCN(c2ccc(C(=O)Nc3cc4cc(-c5cnn(C)c5)ncc4cn3)cn2)CC1 [Compound 3778, N-(6-(1-Methyl-1H-pyrazol-4-yl)-2,7-naphthyridin-3-yl)-6-(4-methylpiperazin-1-yl)nicotinamide] | 187 nM | 3970 nM |  | 7720 nM |  | 4 nM | 720 nM | > 10000 nM | 4.2% | 694 nM | 
7 | CN1CCC(Nc2cncc(C(=O)Nc3cc4cc(-c5cnn(C)c5)ncc4cn3)c2)CC1 [Compound 3783, N-(6-(1-Methyl-1H-pyrazol-4-yl)-2,7-naphthyridin-3-yl)-5-((1-methylpiperidin-4-yl)amino)nicotinamide] | 2340 nM | 1080 nM |  | 1970 nM |  | 4 nM | 5300 nM | > 10000 nM | 1.7% | 2100 nM | 
8 | CN(C)CCNc1cc(C(=O)Nc2cc3cc(-c4cnn(C)c4)ncc3cn2)ccn1 [Compound 3791, 2-((2-(Dimethylamino)ethyl)amino)-N-(6-(1-methyl-1H-pyrazol-4-yl)-2,7-naphthyridin-3-yl)isonicotinamide] | 1350 nM | 482 nM |  | 3420 nM |  | 10 nM | 3900 nM | > 10000 nM | 0% | 4950 nM | 
9 | CN(C)Cc1ccc(C(=O)Nc2cc3cc(-c4cnn(C)c4)ncc3cn2)cc1 [Compound 3797, 4-((Dimethylamino)methyl)-N-(6-(1-methyl-1H-pyrazol-4-yl)-2,7-naphthyridin-3-yl)benzamide] | 409 nM | 427 nM |  | 7020 nM |  | 8 nM | 54 nM | > 10000 nM | 7% | 2700 nM | 
10 | CN1CCc2ccc(C(=O)Nc3cc4cc(-c5cnn(C)c5)ncc4cn3)cc2C1 [Compound 3829, 2-Methyl-N-(6-(1-methyl-1H-pyrazol-4-yl)-2,7-naphthyridin-3-yl)-1,2,3,4-tetrahydroisoquinoline-7-carboxamide] | 763 nM | 994 nM |  | 9320 nM |  | 10 nM | 533 nM | > 10000 nM | 5.3% | 759 nM | 
11 | Cn1cc(-c2cc3cc(NC(=O)c4ccc5ccoc5c4)ncc3cn2)cn1 [Compound 3836, N-(6-(1-Methyl-1H-pyrazol-4-yl)-2,7-naphthyridin-3-yl)benzofuran-6-carboxamide] | 1470 nM | 220 nM |  | > 10000 nM | 33.9% | 5 nM | 1000 nM | > 10000 nM | 1.4% | > 10000 nM | 10%
12 | Cn1cc(-c2cc3cc(NC(=O)c4ccc5nccnc5c4)ncc3cn2)cn1 [Compound 3843, N-(6-(1-Methyl-1H-pyrazol-4-yl)-2,7-naphthyridin-3-yl)quinoxaline-6-carboxamide] | 1160 nM | > 10000 nM | 25% | > 10000 nM | 14% | 6 nM | ≥ 10000 nM | > 10000 nM | 6.8% | 1280 nM | 
13 | CN1CCC(n2cc(C(=O)Nc3cc4cc(-c5cnn(C)c5)ncc4cn3)cn2)CC1 [Compound 3856, N-(6-(1-Methyl-1H-pyrazol-4-yl)-2,7-naphthyridin-3-yl)-1-(1-methylpiperidin-4-yl)-1H-pyrazole-4-carboxamide] | 1750 nM | 367 nM |  | 446 nM |  | 10 nM | 194 nM | 3990 nM |  | > 10000 nM | 17.5%
14 | CC(C)OC(=O)N1CCC(n2cc(C(=O)Nc3cc4cc(-c5cnn(C)c5)ncc4cn3)cn2)CC1 [Compound 3861, Isopropyl 4-(4-((6-(1-methyl-1H-pyrazol-4-yl)-2,7-naphthyridin-3-yl)carbamoyl)-1H-pyrazol-1-yl)piperidine-1-carboxylate] | 1060 nM | 824 nM |  | 933 nM |  | 5 nM | 343 nM | > 10000 nM | 5.8% | 597 nM | 
15 | Cc1ncc(C(=O)Nc2cc3cc(-c4cnc(C)n4C)ncc3cn2)s1 [Compound 4074, N-(6-(1,2-Dimethyl-1H-imidazol-5-yl)-2,7-naphthyridin-3-yl)-2-methylthiazole-5-carboxamide] | 416 nM | 2690 nM |  | 2310 nM |  | 7 nM | 300 nM | > 10000 nM | 14% | 3190 nM | 
